Where two headings read alike, the source gives them in different places.
Key:
cucumber downy mildew [1] = assay: Persistence comparative test against cucumber downy mildew (greenhouse); assay type: in vivo
cucumber downy mildew [2] = assay: Greenhouse pot seedling assay, cucumber downy mildew; assay type: in vivo; conditions: for Control (%): comparative test, Table 18; for pest or weed control at 400 ppm: Cucumis sativus, 120 h, Table 21, read-out: Biological activity in greenhouse, cucumber downy mildew
cucumber downy mildew [3] = assay: Field trial against cucumber downy mildew; assay type: in vivo; conditions: for Control (%) average: average of 3 replicates; for Control (%) I: replicate I; for Control (%) II: replicate II; for Control (%) III: replicate III
Experimental: The trial was carried out in a greenhouse in July 2011 in […] district, Shanxi Province. Before the treatment, the cucumber plants were at the beginning of infection. The trial method was based on the National Standard of the People's Republic of China-“Pesticide-Guidelines for The Field Efficacy Trials”. […] The Area of plot was 15 m^2, random arrangement and 3 times replication. The volume was about 600 L/hm^2, and water was as the control. Efficacy calculation method is as follows: [formula] [formula]

rice blast [4] = assay type: in vivo; conditions: 600 ppm, field
wheat powdery mildew = assay: Greenhouse pot seedling assay, wheat powdery mildew; assay type: in vivo; conditions: for pest or weed control at 400 ppm: Triticum aestivum, 192 h, Table 21, read-out: Biological activity in greenhouse, wheat powdery mildew; for control of wheat powdery mildew: 400 ppm
corn rust = assay: Greenhouse pot seedling assay, corn rust; assay type: in vivo; conditions: for pest or weed control at 400 ppm: Zea mays, 192 h, Table 21, read-out: Biological activity in greenhouse, corn rust; for pest or weed control at 400 ppm / control of corn rust: 400 ppm; for Control (%): comparative test, Table 20
rice blast [5] = assay type: cell-based; conditions: 25 ppm

COc1ccc(C(=CC(=O)N2CCOCC2)c2ccc(Cl)cc2)cc1OC [dimethomorph, reference compound]
Control (%) (cucumber downy mildew [1]; 25 ppm, inoculation 3 days after treatment): 0%
Control (%) (cucumber downy mildew [1]; 25 ppm, inoculation 7 days after treatment): 0%
Control (%) (cucumber downy mildew [1]; 50 ppm, inoculation 3 days after treatment): 30%
Control (%) (cucumber downy mildew [1]; 50 ppm, inoculation 7 days after treatment): 0%
Control (%) (cucumber downy mildew [1]; 100 ppm, inoculation 3 days after treatment): 44%
Control (%) (cucumber downy mildew [1]; 100 ppm, inoculation 7 days after treatment): 0%
Control (%) (cucumber downy mildew [1]; 200 ppm, inoculation 3 days after treatment): 74%
Control (%) (cucumber downy mildew [1]; 200 ppm, inoculation 7 days after treatment): 44%
Control (%) (cucumber downy mildew [1]; 400 ppm, inoculation 3 days after treatment): 100%
Control (%) (cucumber downy mildew [1]; 400 ppm, inoculation 7 days after treatment): 74%
Control (%) (cucumber downy mildew [2]; 6.25 ppm): 29%
Control (%) (cucumber downy mildew [2]; 12.5 ppm): 74%
Control (%) (cucumber downy mildew [2]; 25 ppm): 85%
Control (%) (cucumber downy mildew [2]; 50 ppm): 88%
Control (%) (cucumber downy mildew [2]; 100 ppm): 100%
Control (%) average (cucumber downy mildew [3]; 200 ppm): 53%
Control (%) I (cucumber downy mildew [3]; 200 ppm): 44%
Control (%) II (cucumber downy mildew [3]; 200 ppm): 52%
Control (%) III (cucumber downy mildew [3]; 200 ppm): 63%

O=[N+]([O-])c1cc(C(F)(F)F)c(Cl)c([N+](=O)[O-])c1Nc1ncc(C(F)(F)F)cc1Cl [fluazinam, reference compound]
Control (%) average (rice blast [4]; average of 3 replicates): 75%
Control (%) I (rice blast [4]; replicate I): 70%
Control (%) II (rice blast [4]; replicate II): 75%
Control (%) III (rice blast [4]; replicate III): 80%

N#Cc1c(Cl)c(Cl)c(Cl)c(C#N)c1Cl [chlorothalonil, reference compound]
Control (%) average (cucumber downy mildew [3]; 800 ppm): 74%
Control (%) I (cucumber downy mildew [3]; 800 ppm): 68%
Control (%) II (cucumber downy mildew [3]; 800 ppm): 73%
Control (%) III (cucumber downy mildew [3]; 800 ppm): 81%

CNC(=O)c1ccccc1NC(=O)CCl [VI-1, 2-(2-chloroacetamido)-N-methylbenzamide]
pest or weed control at 400 ppm (cucumber downy mildew [2]; 400 ppm): 0%
melting point: 155 to 157 °C
pest or weed control at 400 ppm (wheat powdery mildew): 0%
pest or weed control at 400 ppm (corn rust): 0%

CCCc1nn(C)c(C(=O)NCc2ccc(OCC(=O)Nc3ccccc3C(=O)NC)cc2)c1Cl [Compound 17]
control of corn rust (corn rust; greenhouse): 100%

CCOC(=O)c1ccccc1NC(=O)COc1ccc(CNC(=O)c2c(Cl)c(C)nn2C)cc1 [Compound 95]
inhibition ratio on spore germination of rice blast (rice blast [5]): 100%
control of corn rust (corn rust; greenhouse): 100%

Cc1nn(C)c(C(=O)NCCc2ccc(O)cc2)c1Cl [VIII-138]
pest or weed control at 400 ppm (cucumber downy mildew [2]; 400 ppm): 0%
pest or weed control at 400 ppm (wheat powdery mildew): 0%
pest or weed control at 400 ppm (corn rust): 0%

COCC(=O)N(c1c(C)cccc1C)C(C)C(=O)OC (centres unmarked) [metalaxyl, reference compound]
Control (%) (cucumber downy mildew [2]; 6.25 ppm): 0%
Control (%) (cucumber downy mildew [2]; 12.5 ppm): 7%
Control (%) (cucumber downy mildew [2]; 25 ppm): 22%
Control (%) (cucumber downy mildew [2]; 50 ppm): 29%
Control (%) (cucumber downy mildew [2]; 100 ppm): 59%

CCc1nn(C)c(C(=O)NCc2ccc(OCC(=O)Nc3ccccc3C(=O)NC)cc2)c1Cl [Compound 16]
control of cucumber downy mildew (cucumber downy mildew [2]; 25 ppm, greenhouse): 100%
control of cucumber downy mildew (cucumber downy mildew [2]; 50 ppm, greenhouse): 100%
control of cucumber downy mildew (cucumber downy mildew [2]; 400 ppm, greenhouse): 100%
melting point: 160 to 161 °C
inhibition ratio on spore germination of rice blast (rice blast [5]; in vitro): 100%
control of wheat powdery mildew (wheat powdery mildew; greenhouse): 100%
control of corn rust (corn rust; greenhouse): 100%

Cc1nn(C)c(C(=O)NCc2ccc(O)cc2)c1Cl [VIII-1]
pest or weed control at 400 ppm (cucumber downy mildew [2]; 400 ppm): 95%
pest or weed control at 400 ppm (wheat powdery mildew): 0%
pest or weed control at 400 ppm (corn rust): 50%

CNC(=O)c1ccccc1NC(=O)COc1ccc(CNC(=O)c2cc(C)nn2C)cc1 [Compound 2]
control of cucumber downy mildew (cucumber downy mildew [2]; 25 ppm, greenhouse): 75%
control of cucumber downy mildew (cucumber downy mildew [2]; 50 ppm, greenhouse): 100%
control of cucumber downy mildew (cucumber downy mildew [2]; 400 ppm, greenhouse): 100%
inhibition ratio on spore germination of rice blast (rice blast [5]): 100%
control of wheat powdery mildew (wheat powdery mildew; greenhouse): 100%
control of corn rust (corn rust; greenhouse): 100%

CCc1cc(C(=O)NCc2ccc(OCC(=O)Nc3ccccc3C(=O)NC)cc2)n(C)n1 [Compound 3]
control of cucumber downy mildew (cucumber downy mildew [2]; 25 ppm): 95%
control of cucumber downy mildew (cucumber downy mildew [2]; 50 ppm): 100%
control of cucumber downy mildew (cucumber downy mildew [2]; 400 ppm): 100%
inhibition ratio on spore germination of rice blast (rice blast [5]): 100%
control of wheat powdery mildew (wheat powdery mildew): 100%
control of corn rust (corn rust): 100%

CCOC(=O)c1ccccc1NC(=O)COc1ccc(CNC(=O)c2c(Cl)c(CC)nn2C)cc1 [Compound 99]
control of corn rust (corn rust; greenhouse): 100%

Fc1ccc([C@]2(Cn3cncn3)O[C@H]2c2ccccc2Cl)cc1 (racemic) [epoxiconazole, reference compound]
Control (%) (corn rust; 3.13 ppm): 40%
Control (%) (corn rust; 6.25 ppm): 75%
Control (%) (corn rust; 12.5 ppm): 90%
Control (%) (corn rust; 25 ppm): 95%
Control (%) (corn rust; 50 ppm): 100%
Control (%) (corn rust; 100 ppm): 100%

CCc1nn(C)c(C(=O)NCc2ccc(O[C@@H](C)C(=O)Nc3ccccc3C(=O)NC)cc2)c1Cl [Compound 69]
control of cucumber downy mildew (cucumber downy mildew [2]; 400 ppm, greenhouse): 100%
control of corn rust (corn rust; greenhouse): 100%

CNC(=O)c1ccccc1NC(=O)C(C)Cl (centres unmarked) [VI-54]
pest or weed control at 400 ppm (cucumber downy mildew [2]; 400 ppm): 30%
melting point: 121 to 122 °C
pest or weed control at 400 ppm (wheat powdery mildew): 0%
pest or weed control at 400 ppm (corn rust): 0%

CCOC(=O)c1cccc(C)c1NC(=O)COc1ccc(CNC(=O)c2c(Cl)c(C)nn2C)cc1 [Compound 94]
control of corn rust (corn rust; greenhouse): 100%

COC(=O)c1ccccc1NC(=O)C(C)Cl (centres unmarked) [VI-56]
pest or weed control at 400 ppm (cucumber downy mildew [2]; 400 ppm): 75%
melting point: 63 to 65 °C
pest or weed control at 400 ppm (wheat powdery mildew): 0%
pest or weed control at 400 ppm (corn rust): 30%

CCc1nn(C)c(C(=O)NCCc2ccc(O)cc2)c1Cl [VIII-139]
pest or weed control at 400 ppm (cucumber downy mildew [2]; 400 ppm): 0%
pest or weed control at 400 ppm (wheat powdery mildew): 0%
pest or weed control at 400 ppm (corn rust): 0%

CNC(=O)c1ccccc1NC(=O)COc1ccc(CN)cc1 [II-1, 2-(2-(4-(aminomethyl)phenoxy)acetamido)-N-methylbenzamide]
pest or weed control at 400 ppm (cucumber downy mildew [2]; 400 ppm): 0%
melting point: 109 to 110 °C
pest or weed control at 400 ppm (wheat powdery mildew): 100%
pest or weed control at 400 ppm (corn rust): 0%

COC(=O)c1ccccc1NC(=O)CCl [VI-20]
pest or weed control at 400 ppm (cucumber downy mildew [2]; 400 ppm): 0%
melting point: 92 to 94 °C
pest or weed control at 400 ppm (wheat powdery mildew): 0%
pest or weed control at 400 ppm (corn rust): 0%

C[C@@]1(c2ccc(Oc3ccccc3)cc2)OC(=O)N(Nc2ccccc2)C1=O (racemic) [famoxadone, reference compound]
Control (%) (cucumber downy mildew [2]; 6.25 ppm): 14%
Control (%) (cucumber downy mildew [2]; 12.5 ppm): 22%
Control (%) (cucumber downy mildew [2]; 25 ppm): 51%
Control (%) (cucumber downy mildew [2]; 50 ppm): 74%
Control (%) (cucumber downy mildew [2]; 100 ppm): 81%

CCNC(=O)c1cccc(C)c1NC(=O)COc1ccc(CNC(=O)c2cc(C)nn2C)cc1 [Compound 177]
control of cucumber downy mildew (cucumber downy mildew [2]; 25 ppm, greenhouse): 100%
control of cucumber downy mildew (cucumber downy mildew [2]; 50 ppm, greenhouse): 100%
control of cucumber downy mildew (cucumber downy mildew [2]; 400 ppm, greenhouse): 100%
inhibition ratio on spore germination of rice blast (rice blast [5]): 100%
control of wheat powdery mildew (wheat powdery mildew; greenhouse): 100%
control of corn rust (corn rust; greenhouse): 100%

Cc1nn(C)c(C(=O)NCc2ccc(OCC(=O)Nc3ccccc3C(N)=O)cc2)c1Cl [Compound 156]
control of corn rust (corn rust; greenhouse): 100%

CCc1nn(C)c(C(=O)NCc2ccc(O[C@H](C)C(=O)Nc3ccccc3C(=O)NC)cc2)c1Cl [Compound 66]
control of cucumber downy mildew (cucumber downy mildew [2]; 400 ppm, greenhouse): 100%
control of corn rust (corn rust; greenhouse): 100%

— US8614214B2, “Pyrazole amide compounds and uses thereof” (Sinochem Corporation, priority 2010, dated 2013)
